Literature values, collected in patent publication US6515132B2, “Process for the preparation of rosiglitazone maleate” (priority 2000, dated 2003).

Conditions: dose given in diet; comparative activity data for thiazolidinediones being clinically progressed

Structure (SMILES) | Minimum effective dose [μmol/kg diet]
O=C1NC(=O)C(Cc2ccc3c(c2)CC[C@H](Cc2ccccc2)O3)S1 (stereo partly drawn) [Englitazone] | 200
CN(CCOc1ccc(CC2SC(=O)NC2=O)cc1)c1ccccn1.O=C(O)/C=C\C(=O)O (stereo not drawn) [Rosiglitazone maleate, 5-[4-[2-(N-methyl-N-(2-pyridyl)amino)ethoxy]benzyl]thiazolidine-2,4-dione maleate] | 3
CN(CCOc1ccc(CC2SC(=O)NC2=O)cc1)c1ccccn1 (stereo not drawn) [Rosiglitazone, 5-[4-[2-(N-methyl-N-(2-pyridyl)amino)ethoxy]benzyl]thiazolidine-2,4-dione] | 3
